Data as given in patent US4127661A, “Piperazine alkanols” (Serdex - Societe d'Etudes, de Recherches, de Diffusion et …, priority 1976, dated 1978).
Where a name gives a salt, the structure may show the parent alone.

Legend:
femoral artery [1] = assay: Vasodilator action in anesthetized dogs (femoral rate of flow, local peripheral resistance), 5 mg/kg i.v.; format: in vivo; conditions: 5 mg/kg intravenously
Experimental: (§1) The tests were conducted with pentobarbital anesthetized dogs (35 mg/kg/i.v.) under artificial respiration with pentobarbital infusion (5 mg/kg/hr).
(§2) The carotid arterial pressure was recorded by means of an electromagnetic capsule connected to the carotid artery. From said determination were calculated the mean blood pressure, the systolic pressure, the diastolic pressure and the pulse pressure.
(§3) The femoral rate of flow was recorded by means of an electromagnetic sensor placed around the femoral artery. Local peripheral resistance was calculated from said parameters.
The compounds of the formula (I) were administered intravenously at a dosage of 5 mg/kg. Two tests were conducted with each compound.

femoral artery [2] = assay: Peripheral action of the compounds of Examples 1, 2 and 4 (femoral rate of flow, local peripheral resistance, blood pressure), 2.5 mg/kg; format: in vivo, dogs; conditions: for Femoral rate of flow: increase; for Local peripheral resistance: at 30mn, decrease
Experimental: as §1, §2, §3

Acute toxicity, oral = conditions: rat, in vivo, single administration, fasted male Sprague Dawley rats, after 14 days, p = 0.05, Litchfield and Wilcoxon
Experimental: Acute toxicity was studied orally in male Sprague Dawley rats kept fasting 24 hours prior to the test, distributed in homogeneous groups of 10 animals each.
The animals were given a single administration of the test materials and were kept under observation during 14 days.
The LD50 were determined after 14 days at a probability threshold of p = 0.05, according to the method of Litchfield and Wilcoxon.

SMILES | assessment among the compounds tested for peripheral vasodilator activity (femoral artery [1]) | Femoral rate of flow (femoral artery [2]; 1 hour) [%] | Local peripheral resistance (femoral artery [2]) [%] | LD50 at 336 h (Acute toxicity, oral) [mg/kg] | Femoral rate of flow (femoral artery [2]; 30mn) [%] | Femoral rate of flow (femoral artery [2]; on injection (injec.)) [%]
CC(=O)C(c1ccccc1)N1CCN(CCOc2ccccc2)CC1 (stereo not shown) [Example 1, 1-[N-(2-phenoxy-1-ethyl)piperazino]-1-phenylacetone] | particularly valuable | > 25 | 20 | 800 |  | 
CC(O)C(c1ccccc1)N1CCN(CCOc2ccccc2)CC1 (stereo not shown) [Example 2, 1-[N-(2-phenoxy-1-ethyl)piperazino]-1-phenyl-2-propanol] | particularly valuable |  | 15 | 250 | > 15 | > 100
CCC(O)C(c1ccccc1)N1CCN(CCOc2ccccc2C)CC1 (stereo not shown) [Example 4, 1-(N-[2-(2-methyl-1-phenoxy)-1-ethyl]piperazino)-1-phenyl-2-butanol dihydrochloride] | particularly valuable | > 30 | 30 | 700 |  | 
